{
  "source": "patent US20260273059A1",
  "about": "“METHODS OF EVADING IMMUNE REJECTION” (William Marsh Rice University, priority 2023, published 2026)",
  "tested_on": "cytokine producing, kill switch inducible cell line",
  "assay": "Small molecule inducible kill switch",
  "type": "cell-based",
  "conditions": "100 nM",
  "description": "Cell engineering for cells equipped with a small molecule inducible kill switch consist of a base epithelial cell line and a highly modular PiggyBAC transposon system. This vector system is composed of a strong promotor that is constitutively expressed, a kozak translation initiation sequence, the gene of interest (any cytokine, chemokine, or other protein), an internal ribosome entry site, a kill switch gene, a puromycin resistance gene and a poly-A tail in between two inverted terminal repeat sequences. Variation to this system requires only gene of interest swapping and allows for quick and easy “plug and play” cell engineering. The kill switch can be added to enhance the safety of cells engineered to produce the following cytokines: IL-1, IL-1a, IL-1b, IL-1RA, IL-2, IL-4, IL-5, IL-6, IL-7, IL-8, IL-9, IL-10, IL-11, IL-12, IL-12a, IL-12b, IL-13, IL-14, IL-15, IL-16, IL-17, IL-20, IFN-α, IFN-b, IFN-c, TNF-α, TNF-b, TGF-b, CCL-1, CCL-2, CCL-3, CCL-4, CCL-5, CCL-6, CCL-7, CCL-8, CCL-9, CCL-10, CCL-11, CCL-12, CCL-13, CCL-14, CCL-15, CCL-16, CCL-18, CCL-19, CCL-20, CCL-21, CCL-22, CCL-23, CCL-24, CCL-25, CCL-26, CCL-27, CCL-28, CXCL1, CXCL2, CXCL3, CXCL4, CXCL5, CXCL6, CXCL7, CXCL8, CXCL9, CXCL10, CXCL11, CXCL12, CXCL13, CXCL14, CXCL15, CXCL16, CXCL17. […]",
  "data": [
    {"smiles": "CC[C@H](C(=O)N1CCCC[C@H]1C(=O)O[C@H](CCc1ccc(OC)c(OC)c1)c1cccc(OCC(=O)NCCNC(=O)COc2cccc([C@@H](CCc3ccc(OC)c(OC)c3)OC(=O)[C@@H]3CCCCN3C(=O)[C@@H](CC)c3cc(OC)c(OC)c(OC)c3)c2)c1)c1cc(OC)c(OC)c(OC)c1", "note": "[AP1903, rimiducid]", "values": [
      {"measurement": "time in which the kill switch inducible cell line responds", "result": "less than 24 hours"}
    ]}
  ]
}
